Laboratory results: patent US4554287A, “Antihypertensive 7-[2-(dialkylamino)ethyl]-4-hydroxy-1,3-benzimidazol-2-ones” (Smithkline Beckman Corporation, priority 1984, dated 1985)
Like-named read-outs stand apart in the source and are kept apart here.

Legend:
D2 -receptors [1] = molecular target: T1, D2 -receptors (Oryctolagus cuniculus, UniProt G1T1Q0); assay: perfused rabbit ear artery test for D2-agonist activity
T1 construct: perfused rabbit ear artery test; from tissue; host or cells: perfused rabbit ear artery (sympathetic nerve terminals)
T1 sequence (G1T1Q0 1-443): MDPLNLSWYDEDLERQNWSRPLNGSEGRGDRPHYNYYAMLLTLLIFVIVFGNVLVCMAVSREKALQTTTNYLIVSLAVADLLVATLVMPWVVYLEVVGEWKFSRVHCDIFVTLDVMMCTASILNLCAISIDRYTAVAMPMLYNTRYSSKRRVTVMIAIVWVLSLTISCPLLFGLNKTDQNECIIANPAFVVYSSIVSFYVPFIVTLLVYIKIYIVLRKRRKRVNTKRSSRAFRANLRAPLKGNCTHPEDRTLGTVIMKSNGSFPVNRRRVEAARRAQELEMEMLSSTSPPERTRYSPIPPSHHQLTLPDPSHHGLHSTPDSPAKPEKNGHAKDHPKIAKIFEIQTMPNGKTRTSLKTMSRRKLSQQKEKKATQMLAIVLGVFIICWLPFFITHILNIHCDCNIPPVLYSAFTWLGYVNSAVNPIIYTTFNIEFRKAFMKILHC
Description: In the perfused rabbit ear artery test for D2 -agonist activity [J. P. Hieble et al., Arch.

D2 -receptors [2] = assay: D2-agonist activity (test not specified); conditions: presynaptic dopaminergic receptors on sympathetic nerve terminals
Description: Otherwise speaking, the main locus of action is at the presynaptic dopaminergic receptors or sympathetic nerve terminals which may also be called "D2 -receptors." Activation of the D2 -receptors on the sympathetic nerve terminals inhibits the release of norepinephrine, thereby inhibiting the increases in cardiac rate and the peripheral vasoconstriction resulting from stimulation of the sympathetic nervous system. These are beneficial cardiovascular actions in those conditions involving excessive or inappropriate levels of sympathetic nervous system stimulation.

| EC50 (D2 -receptors [1]; perfused rabbit ear artery, D2 -agonist activity, read-out: EC50) | D2 -agonist activity (in words) (D2 -receptors [2]) | SMILES | EC50 (D2 -receptors [1]) |
| --- | --- | --- | --- |
| ~9 nM | peripheral D2 -agonists | CCCN(CCC)CCc1ccc(O)c2[nH]c(=O)[nH]c12 [7-[2-(N,N-di-n-propylamino)ethyl]-4-hydroxy-1,3-benzimidazol-2-one] | – |
| – | – | CCCN(CCC)CCc1ccc(O)c(O)c1 [N,N-di-n-propyldopamine, reference compound] | 50 to 60 nM |
